US20070105847A1, “1,3-Dioxane derivatives and analogues thereof useful in the treatment of i.a. obesity and diabetes” (priority 2004, published 2007)

Tests used:
[1] = tested on: Swiss albino mice; test: Serum triglyceride and total cholesterol lowering activity in Swiss albino mice; format: in vivo; settings: male Swiss albino mice, oral, 10 mg/kg/day for 6 days, 1 hour after dosing on 6th day
Experimental: • i) Serum triglyceride and total cholesterol lowering activity in Swiss albino mice:
Male Swiss albino mice (SAM) were bred in Zydus animal house. All these animals were maintained under 12 hour light and dark cycle at 25±1° C. Animals were given standard laboratory chow (NIN, Hyderabad, India) and water ad libitum. SAM of 20-30 g body weight range was used. The protocol approved by Institutional Animal Ethics Committee is being used.
The test compounds were administered orally to Swiss albino mice at 0.001 to 50 mg/kg/day dose for 6 days. The compound was administered after suspending it in 0.25% CMC or dissolving it in water, when compound is water-soluble. Control mice were treated with vehicle (0.25% of Carboxymethylcellulose; dose 10 ml/kg).
The blood samples were collected on 0th day and in fed state 1 hour after drug administration on 6th day of the treatment. The blood was collected in non heparinised capillary and the serum was analyzed for triglyceride and total cholesterol (Wieland, O. Methods of Enzymatic analysis. Bergermeyer, H., O., Ed., 1963. 211-214; Trinder, P. Ann. Clin. Biochem. 1969. 6: 24-27). Measurement of serum triglyceride and total cholesterol was done using commercial kits (Zydus-Cadila, Pathline, Ahmedabad, India).
Percentage reduction in triglycerides/total cholesterol were calculated according to the formula: [formula]
OC=Zero day control group value OT=Zero day treated group value TC=Test day control group TT=Test day treated group

[2] = tested on: Hamster of Syrian golden stain; test: Serum triglyceride and total cholesterol lowering activity in Hamster of Syrian golden strain on HF-HC diet; format: in vivo; settings: hamsters on HF-HC diet, po, 3 mg/kg/day for 15 days
Excerpt: ii) Surem triglyceride and total cholesterol lowering activity in Hamster of Syrian golden stain:
Male and Female Hamster of Syrian golden stain were bred in Zydus animal house. All these animals were maintained under 12-hour light and dark cycle at 22±3 degree C. The protocol approved by Institutional Animal Ethics Committee is being used. Two groups of animals were put on HF-HC (High fat and high cholesterol) diet for 14 days. On day 14 […] one group of animals of were put on normal diet for two weeks.
One group of animals on HF-HC diet were treated (po) with compounds of the present invention, at 0.001 to 50 mg/kg daily for 15 days while the other group received the vehicle. After 15 days blood samples. were be collected in non heparinized capillary from animals for determination of total cholesterol (TC), triglyceride (TG) (Wieland, O. Methods of Enzymatic analysis. Bergermeyer, H., O., Ed., 1963. 211-214; Trinder, P. Ann. Clin. Biochem. 1969. 6: 24-27). Measurement of serum triglyceride and total cholesterol was done using commercial kits (Pointe Scientific. Inc. USA.)
Percentage reduction in triglycerides/total cholesterol were calculated according to the formula:
• Percentage reduction (%)=(TT−TC)/TC*100
TC=Test day control group TT=Test day treated group.

| SMILES | % Triglyceride lowering [1] [%] | % Triglyceride lowering [2] [%] |
| --- | --- | --- |
| CC1(C(=O)O)OCC(CCCCc2ccc(OCc3ccccc3)cc2)CO1 (stereo not shown) [Example 49, 5-[4-(4-Benzyloxy-phenyl)-butyl]-2-methyl-[1,3]dioxane-2-carboxylic acid] | 26 |  |
| CC1(C(=O)O)OCC(CCCCc2ccc(OS(C)(=O)=O)cc2)CO1 (stereo not shown) [Example 50, 5-[4-(4-Methanesulfonyloxy-phenyl)-butyl]-2-methyl-[1,3]dioxane-2-carboxylic acid] | 32 | 45 |
| CC1(C(=O)O)OCC(CCCCOc2ccc(Cc3ccccc3)cc2)CO1 (stereo not shown) [Example 38, 5-[4-(4-Benzyl-phenoxy)-butyl]-2-methyl-[1,3]dioxane-2-carboxylic acid] | 32 |  |
